The source of these data is PubChem BioAssay (NCI).

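Dose response: 5 concentrations. Exposure: 48 h. Format: 96-well plates. Endpoint: linear interpolation; highest concentration if not reached. Abbreviation: GI50, concentration required for 50% inhibition of growth. TGI: total growth inhibition.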

Some test systems named below: OVCAR-5 ovarian; SN12C renal; MOLT-4 leukemia; M14 melanoma; SR leukemia; NCI-H460 lung; HS 578T breast; NCI/ADR-RES ovarian.
Holding throughout (assay): NCI tumour cell line growth inhibition, 48 h

`COc1cccc2c1C(=O)c1c(O)c3c(c(O)c1C2=O)C[C@@](O)(C(=O)CO)C[C@@H]3O[C@H]1C[C@H](N)[C@@H](O)[C@H](C)O1`: the GI50 with OVCAR-5 ovarian was 1270 nM; in the assay with SN12C renal, 126 nM; in the assay with MOLT-4 leukemia, 32.6 nM; in the assay with M14 melanoma, 281 nM; in the assay on SR leukemia, 13.7 nM; with NCI-H460 lung, 23.1 nM. The GI50 in the assay with HS 578T breast is 257 nM. Further, the TGI with OVCAR-5 ovarian is 13 µM; in the assay with SN12C renal, 11.9 µM; in the assay on MOLT-4 leukemia, 0.285 µM; in the assay on M14 melanoma, 1.16 µM; in the assay with SR leukemia, 1.07 µM; in the assay with NCI-H460 lung, 17.1 µM. The same molecule came in with a TGI in the assay on HS 578T breast of 3.3 µM.
For the molecule `O=C1C=CC[C@H](/C=C/c2ccccc2)O1`, the GI50 in the assay with OVCAR-5 ovarian is 1920 nM; in the assay with SN12C renal, 3550 nM; in the assay with M14 melanoma it was 5850 nM; in the assay with NCI/ADR-RES ovarian, 3.12 µM; in the assay with SR leukemia it was 2780 nM; with NCI-H460 lung it was 1530 nM. In addition, the GI50 in the assay on HS 578T breast is 3150 nM. For the same molecule, the TGI is 10.4 µM in the assay with OVCAR-5 ovarian; 17.9 µM in the assay on SN12C renal; over 100 µM in the assay with MOLT-4 leukemia; 23.3 µM with M14 melanoma; over 23.2 µM with NCI/ADR-RES ovarian; over 100 µM with SR leukemia. For the same molecule, the TGI with NCI-H460 lung is 14.3 µM; in the assay on HS 578T breast it was 30.4 µM.
For `COC(=O)C1CCCN1C(=O)[C@@H]1CCCN1C(=O)[C@H](Cc1c[nH]c2ccccc12)NC(=S)Nc1cc(C(F)(F)F)cc(C(F)(F)F)c1` (some centres not stated), the GI50 in the assay on SN12C renal was 2820 nM; with MOLT-4 leukemia, 2040 nM; in the assay with M14 melanoma, 2190 nM; with NCI/ADR-RES ovarian, 3.85 µM; with SR leukemia, 1920 nM; in the assay with NCI-H460 lung, 1940 nM. Moreover, the GI50 in the assay with HS 578T breast was 3100 nM. Also, the TGI in the assay on SN12C renal came out at 10.5 µM; in the assay with MOLT-4 leukemia, 8.62 µM; in the assay with M14 melanoma, 5.23 µM; with NCI/ADR-RES ovarian, 22.1 µM; in the assay with SR leukemia it was 5.03 µM; with NCI-H460 lung it was 3.79 µM. Moreover, the TGI in the assay with HS 578T breast worked out at 11.4 µM.
`C=C1C(=O)O[C@H]2[C@H]1CCC(/C=N/c1ncc(Br)cc1N)=C\CC[C@@]1(C)O[C@@H]21`: the GI50 in the assay on OVCAR-5 ovarian is 3200 nM; with SN12C renal, 1780 nM; with MOLT-4 leukemia, 2360 nM; in the assay with M14 melanoma it was 1890 nM; in the assay with NCI/ADR-RES ovarian, 3.11 µM; in the assay with SR leukemia, 1320 nM. Besides, the GI50 in the assay on NCI-H460 lung was 5810 nM; in the assay with HS 578T breast, 5650 nM. In addition, the TGI in the assay on OVCAR-5 ovarian was determined as 11.5 µM; in the assay on SN12C renal, 5.41 µM; with MOLT-4 leukemia, 9.33 µM; with M14 melanoma, 5.36 µM; in the assay with NCI/ADR-RES ovarian it was 21.9 µM; in the assay with SR leukemia it was 7.68 µM. In addition, the TGI in the assay with NCI-H460 lung is 22.3 µM; in the assay on HS 578T breast, 40.1 µM.
In the case of `Nc1nc(N)c2c(n1)NC(c1ccc(F)cc1)C1CCc3ccccc3C1=N2` (configuration not stated), the GI50 in the assay on OVCAR-5 ovarian was 13100 nM; in the assay on SN12C renal, 7800 nM; in the assay on M14 melanoma it was 5510 nM; in the assay with NCI/ADR-RES ovarian, 3.19 µM; with SR leukemia it was 1650 nM; in the assay on NCI-H460 lung, 3760 nM. The GI50 in the assay on HS 578T breast was 10200 nM. Also, the TGI was found to be 26.3 µM in the assay on OVCAR-5 ovarian; 21.6 µM with SN12C renal; 18.7 µM in the assay on M14 melanoma; 11.4 µM in the assay with NCI/ADR-RES ovarian; 4.14 µM in the assay on SR leukemia; 13.6 µM with NCI-H460 lung. The TGI with HS 578T breast worked out at 34.6 µM.
As to `CN1C(=O)C(CC(=O)O)NC1=S` (configuration not stated), the TGI with OVCAR-5 ovarian, with SN12C renal, with MOLT-4 leukemia, in the assay with M14 melanoma, with NCI/ADR-RES ovarian and with SR leukemia was over 100 µM in each case. The TGI in the assay on NCI-H460 lung and in the assay with HS 578T breast was over 100 µM in each case.
As to `CC(NCCC(=O)N(CCC(=O)N(CCC(=O)N(CCC(=O)N(CCC(=O)N(CCC(=O)N(CCC(=O)N(CCC(=O)N(CCC(=O)N(CCC(=O)O)[C@H](C)c1ccccc1)[C@H](C)c1ccccc1)[C@H](C)c1ccccc1)[C@H](C)c1ccccc1)[C@H](C)c1ccccc1)[C@H](C)c1ccccc1)[C@H](C)c1ccccc1)[C@H](C)c1ccccc1)[C@H](C)c1ccccc1)c1ccccc1` (some centres not stated), the GI50 in the assay with OVCAR-5 ovarian is over 18800 nM; in the assay on SN12C renal it was 3660 nM; with MOLT-4 leukemia, 1610 nM; in the assay on M14 melanoma it was 1770 nM; in the assay with NCI/ADR-RES ovarian, over 75 µM; in the assay on NCI-H460 lung, 2050 nM. Also, the GI50 in the assay with HS 578T breast was 2540 nM. Also, the TGI in the assay on OVCAR-5 ovarian is over 75 µM; in the assay with SN12C renal it was over 75 µM; in the assay with MOLT-4 leukemia it was 6.7 µM; in the assay on M14 melanoma it was 5.49 µM; with NCI/ADR-RES ovarian it was over 75 µM; in the assay on NCI-H460 lung, 6.64 µM. For the same molecule, the TGI in the assay on HS 578T breast was over 57.3 µM.
For `CNCCNc1c2c(c(NCCNC)c3[nH]ccc13)C(=O)c1ccccc1C2=O`, the GI50 is 536 nM in the assay with OVCAR-5 ovarian; under 25.7 nM with SN12C renal; under 26.1 nM with MOLT-4 leukemia; 270 nM in the assay with M14 melanoma; 1.26 µM in the assay on NCI/ADR-RES ovarian; 99.1 nM with NCI-H460 lung. Moreover, the GI50 in the assay on HS 578T breast was 565 nM. Moreover, the TGI is 1.93 µM in the assay with OVCAR-5 ovarian; 0.097 µM with SN12C renal; 1.35 µM with M14 melanoma; 8.21 µM with NCI/ADR-RES ovarian; 0.501 µM in the assay with NCI-H460 lung; 1.65 µM in the assay on HS 578T breast.
On to `OC(CNCC1CCCO1)Cn1c2ccc(Cl)cc2c2cc(Cl)ccc21` (configuration not stated), for which the GI50 in the assay on OVCAR-5 ovarian was 1890 nM; in the assay with SN12C renal, 2060 nM; in the assay with MOLT-4 leukemia, 2090 nM; in the assay on NCI/ADR-RES ovarian, 1.93 µM; in the assay on SR leukemia, 2050 nM; with NCI-H460 lung, 1950 nM. In addition, the GI50 with HS 578T breast is 2140 nM. Also, the TGI with OVCAR-5 ovarian is 3.61 µM; in the assay with SN12C renal, 4.58 µM; in the assay with MOLT-4 leukemia, 4.65 µM; with NCI/ADR-RES ovarian, 3.82 µM; with SR leukemia it was 5.5 µM; with NCI-H460 lung, 3.75 µM. The TGI with HS 578T breast amounted to 6.93 µM.
